In patent EP4439067A1, “METHOD FOR IDENTIFYING REACTIVE OXYGEN SPECIES” (Centre National de la Recherche Scientifique, priority 2023, dated 2024):

How the values were obtained:
[1] = test system: HeLa cells; experiment: Extracellular acidification rates (ECAR), Seahorse XF24 flux analyser; type: cell-based, human; conditions: 1 µM, both siCtrl- and siOPA1-transfected cells
Description: (§1) The inventors assessed oxygen consumption rates (OCR), a direct measure of oxidative phosphorylation activity, and extracellular acidification rates (ECAR), representative of glycolysis, since it accounts for approximately 80% of acidification (Wu et al., 2007, Xie et al., 2009), using the Seahorse XF24 flux analyser (Seahorse Bioscience Inc, North Billerica, MA, USA). Basal respiration was 38% lower in siOPA1-transfected HeLa cells than siCtrl-treated cells (Figure 1). Furthermore, ATP-linked respiration measured in the presence of oligomycin, which inhibits ATP synthase, was reduced by 40%. The maximal OCR measured in the presence of the protonophore FCCP, which uncouples oxidation and phosphorylation, was reduced by 58%. […] Indeed, citrate synthase activity and quantity and HSP60, VDAC, and TOM20 levels were unchanged (Figures 18 and 19).
Oxygen consumption rates (OCR) and extracellular acidification rates (ECAR) were measured using the XF24 Extracellular Flux Analyser (Seahorse Bioscience, North Billerica, MA). HeLa cells (15.103) transfected with siCtrl or siOPA1 were plated on XF24 microplates three days before OCR measurements. Dual-analyte sensor cartridges were soaked in XF Calibrant Solution (Seahorse Biosciences) in 24-well cell-culture microplates overnight at 37°C to hydrate. […]

[2] = test system: HeLa cells; experiment: Oxygen consumption rates (OCR), Seahorse XF24 flux analyser; type: cell-based, human; conditions: for effect on OCR / mitochondrial respiration: rotenone 1 µM plus antimycin A 1 µM, siOPA1- and siCtrl-transfected cells; for oxygen consumption due to mitochondrial respiration: shown by rotenone plus antimycin, both siOPA1- and siCtrl-transfected cells
Description: as §1
Oxygen consumption rates (OCR) and extracellular acidification rates (ECAR) were measured using the XF24 Extracellular Flux Analyser (Seahorse Bioscience, North Billerica, MA). HeLa cells (15.103) transfected with siCtrl or siOPA1 were plated on XF24 microplates three days before OCR measurements. Dual-analyte sensor cartridges were soaked in XF Calibrant Solution (Seahorse Biosciences) in 24-well cell-culture microplates overnight at 37°C to hydrate. Approximately one hour prior to experimentation, injection ports on the sensor cartridge were filled with oligomycin (1 µM), Carbonyl cyanide 4-(trifluoromethoxy) phenylhydrazone (FCCP) (1 µM), and rotenone (1 µM) plus antimycin A (1 µM). Plates were then loaded into the XF24 instrument for calibration. For measuring oxygen consumption, the DMEM growth media of HeLa cells was replaced by DMEM supplemented with NaCl (143 mM), Phenol Red (3 mg/ml), glucose (10 mM), glutamine (2 mM), and pyruvate (2 mM) at pH 7.4, and the plates maintained at 37°C 1 h prior to experimentation. Plates were then loaded into the Seahorse XF24 analyser following the manufacturer's instructions.

| Compound | effect of oligomycin injection on ECAR [1] | effect on OCR / mitochondrial respiration [2] | effect on OCR / mitochondrial respiration ([2]; listed as Rotenone) | oxygen consumption due to mitochondrial respiration [2] | effect on OCR / mitochondrial respiration ([2]; listed as antimycin) |
| --- | --- | --- | --- | --- | --- |
| CC[C@H]1/C=C/C=C/C[C@@H](C)[C@H](O)[C@@](C)(O)C(=O)[C@@H](C)[C@H](O)[C@@H](C)C(=O)[C@@H](C)[C@H](O)[C@@H](C)/C=C/C(=O)O[C@@H]2[C@H](C)[C@H](CC1)O[C@]1(CC[C@H](C)[C@H](C[C@@H](C)O)O1)[C@H]2C [oligomycin] | increased |  |  |  |  |
| C=C(C)[C@H]1Cc2c(ccc3c2O[C@@H]2COc4cc(OC)c(OC)cc4[C@@H]2C3=O)O1 [rotenone] |  | inhibited mitochondrial respiration | considerably decreased | more than 95% |  |
| antimycin A |  | inhibited mitochondrial respiration |  | more than 95% | considerably decreased |
